Measurements from ChEMBL document CHEMBL3797178, “Synthesis, antimycobacterial and antibacterial activity of 1-(6-amino-3,5-difluoropyridin-2-yl)fluoroquinolone derivatives containing an oxime functional moiety” (2016).
Values after ≈ are worked out from the molar mass of the structure shown.

How the values were obtained:
Type in all cases: functional
Pseudomonas aeruginosa [1] = assay: Antibacterial activity against Pseudomonas aeruginosa ATCC 27853 after 18 to 24 hrs by CLSI M100-S11 method
[2] = system: Staphylococcus epidermidis; assay: Antibacterial activity against methicillin-resistant Staphylococcus epidermidis 14-22 after 18 to 24 hrs by CLSI M100-S11 method
Enterococcus faecalis [3] = assay: Antibacterial activity against Enterococcus faecalis 14-2 after 18 to 24 hrs by CLSI M100-S11 method
Escherichia coli [4] = assay: Antibacterial activity against Escherichia coli 14-1 after 18 to 24 hrs by CLSI M100-S11 method
[5] = system: Staphylococcus epidermidis; assay: Antibacterial activity against methicillin-resistant Staphylococcus epidermidis 14-39 after 18 to 24 hrs by CLSI M100-S11 method
Pseudomonas aeruginosa [6] = assay: Antibacterial activity against Pseudomonas aeruginosa 14-14 after 18 to 24 hrs by CLSI M100-S11 method
Klebsiella pneumoniae [7] = assay: Antibacterial activity against extended-spectrum beta-lactamase-producing Klebsiella pneumoniae 14-18 after 18 to 24 hrs by CLSI M100-S11 method
Pseudomonas aeruginosa [8] = assay: Antibacterial activity against Pseudomonas aeruginosa 14-19 after 18 to 24 hrs by CLSI M100-S11 method
Escherichia coli [9] = assay: Antibacterial activity against Escherichia coli 14-2 after 18 to 24 hrs by CLSI M100-S11 method
Klebsiella pneumoniae [10] = assay: Antibacterial activity against Klebsiella pneumoniae 14-4 after 18 to 24 hrs by CLSI M100-S11 method
[11] = system: Staphylococcus epidermidis; assay: Antibacterial activity against methicillin-resistant Staphylococcus epidermidis 14-37 after 18 to 24 hrs by CLSI M100-S11 method
Klebsiella pneumoniae [12] = assay: Antibacterial activity against extended-spectrum beta-lactamase-producing Klebsiella pneumoniae 14-19 after 18 to 24 hrs by CLSI M100-S11 method
Pseudomonas aeruginosa [13] = assay: Antibacterial activity against Pseudomonas aeruginosa 14-9 after 18 to 24 hrs by CLSI M100-S11 method
Staphylococcus aureus [14] = assay: Antibacterial activity against methicillin-sensitive Staphylococcus aureus 14-3 after 18 to 24 hrs by CLSI M100-S11 method
Staphylococcus aureus [15] = assay: Antibacterial activity against Staphylococcus aureus CMCC 26003 after 18 to 24 hrs by CLSI M100-S11 method
[16] = system: Mycobacterium tuberculosis; assay: Antimycobacterial activity against Mycobacterium tuberculosis H37Rv ATCC 27294 after 3 days by microplate Alamar Blue assay; conditions: H37Rv ATCC 27294, 72 h
Staphylococcus aureus [17] = assay: Antibacterial activity against methicillin-sensitive Staphylococcus aureus 14-4 after 18 to 24 hrs by CLSI M100-S11 method
Klebsiella pneumoniae [18] = assay: Antibacterial activity against Klebsiella pneumoniae 14-2 after 18 to 24 hrs by CLSI M100-S11 method
Enterococcus faecium [19] = assay: Antibacterial activity against Enterococcus faecium 14-1 after 18 to 24 hrs by CLSI M100-S11 method
Pseudomonas aeruginosa [20] = assay: Antibacterial activity against Pseudomonas aeruginosa 14-15 after 18 to 24 hrs by CLSI M100-S11 method
Enterococcus faecium [21] = assay: Antibacterial activity against Enterococcus faecium 14-2 after 18 to 24 hrs by CLSI M100-S11 method
Escherichia coli [22] = assay: Antibacterial activity against extended-spectrum beta-lactamase-producing Escherichia coli 14-1 after 18 to 24 hrs by CLSI M100-S11 method
Staphylococcus aureus [23] = assay: Antibacterial activity against methicillin-resistant Staphylococcus aureus 14-5 after 18 to 24 hrs by CLSI M100-S11 method
Escherichia coli [24] = assay: Antibacterial activity against Escherichia coli ATCC 25922 after 18 to 24 hrs by CLSI M100-S11 method
Enterococcus faecalis [25] = assay: Antibacterial activity against Enterococcus faecalis 14-1 after 18 to 24 hrs by CLSI M100-S11 method
Klebsiella pneumoniae [26] = assay: Antibacterial activity against Klebsiella pneumoniae 14-3 after 18 to 24 hrs by CLSI M100-S11 method
Streptococcus pneumoniae = assay: Antibacterial activity against Streptococcus pneumoniae ATCC 19615 after 18 to 24 hrs by CLSI M100-S11 method
Klebsiella pneumoniae [27] = assay: Antibacterial activity against extended-spectrum beta-lactamase-producing Klebsiella pneumoniae 14-17 after 18 to 24 hrs by CLSI M100-S11 method
Staphylococcus aureus [28] = assay: Antibacterial activity against methicillin-resistant Staphylococcus aureus 14-4 after 18 to 24 hrs by CLSI M100-S11 method
Klebsiella pneumoniae [29] = assay: Antibacterial activity against Klebsiella pneumoniae 14-1 after 18 to 24 hrs by CLSI M100-S11 method
Enterococcus faecalis [30] = assay: Antibacterial activity against Enterococcus faecalis 14-3 after 18 to 24 hrs by CLSI M100-S11 method
[31] = system: Staphylococcus epidermidis; assay: Antibacterial activity against methicillin-sensitive Staphylococcus epidermidis 14-6 after 18 to 24 hrs by CLSI M100-S11 method
[32] = system: Staphylococcus epidermidis; assay: Antibacterial activity against methicillin-sensitive Staphylococcus epidermidis 14-4 after 18 to 24 hrs by CLSI M100-S11 method
Escherichia coli [33] = assay: Antibacterial activity against extended-spectrum beta-lactamase-producing Escherichia coli 14-2 after 18 to 24 hrs by CLSI M100-S11 method
[34] = system: Staphylococcus epidermidis; assay: Antibacterial activity against methicillin-sensitive Staphylococcus epidermidis 14-2 after 18 to 24 hrs by CLSI M100-S11 method
Staphylococcus aureus [35] = assay: Antibacterial activity against methicillin-sensitive Staphylococcus aureus 14-2 after 18 to 24 hrs by CLSI M100-S11 method
Pseudomonas aeruginosa [36] = assay: Antibacterial activity against Pseudomonas aeruginosa 14-16 after 18 to 24 hrs by CLSI M100-S11 method

CO/N=C1\CN(c2nc3c(cc2F)c(=O)c(C(=O)O)cn3-c2nc(N)c(F)cc2F)[C@@H]1CN
MIC (Pseudomonas aeruginosa [1]): 64 µg/mL (≈ 138 µM) | MIC [2]: > 128 µg/mL | MIC (Enterococcus faecalis [3]): > 128 µg/mL | MIC (Escherichia coli [4]): > 128 µg/mL | MIC [5]: > 131 µg/mL | MIC (Pseudomonas aeruginosa [6]): 64 µg/mL (≈ 138 µM) | MIC (Klebsiella pneumoniae [7]): 64 µg/mL (≈ 138 µM) | MIC (Pseudomonas aeruginosa [8]): 64 µg/mL (≈ 138 µM) | MIC (Escherichia coli [9]): > 128 µg/mL | MIC (Klebsiella pneumoniae [10]): > 128 µg/mL | MIC [11]: > 128 µg/mL | MIC (Klebsiella pneumoniae [12]): > 128 µg/mL | MIC (Pseudomonas aeruginosa [13]): 64 µg/mL (≈ 138 µM) | MIC (Staphylococcus aureus [14]): 32 µg/mL (≈ 69.1 µM) | MIC (Staphylococcus aureus [15]): 16 µg/mL (≈ 34.5 µM) | MIC [16]: > 32 µg/mL | MIC (Staphylococcus aureus [17]): 16 µg/mL (≈ 34.5 µM) | MIC (Klebsiella pneumoniae [18]): > 128 µg/mL | MIC (Enterococcus faecium [19]): > 128 µg/mL | MIC (Pseudomonas aeruginosa [20]): 64 µg/mL (≈ 138 µM) | MIC (Enterococcus faecium [21]): 64 µg/mL (≈ 138 µM) | MIC (Escherichia coli [22]): > 128 µg/mL | MIC (Staphylococcus aureus [23]): > 128 µg/mL | MIC (Escherichia coli [24]): 16 µg/mL (≈ 34.5 µM) | MIC (Enterococcus faecalis [25]): > 128 µg/mL | MIC (Klebsiella pneumoniae [26]): > 128 µg/mL | MIC (Streptococcus pneumoniae): 128 µg/mL (≈ 276 µM) | MIC (Klebsiella pneumoniae [27]): > 128 µg/mL | MIC (Staphylococcus aureus [28]): > 128 µg/mL | MIC (Klebsiella pneumoniae [29]): > 128 µg/mL | MIC (Enterococcus faecalis [30]): > 128 µg/mL | MIC [31]: > 128 µg/mL | MIC [32]: > 128 µg/mL | MIC (Escherichia coli [33]): > 128 µg/mL | MIC [34]: > 128 µg/mL | MIC (Staphylococcus aureus [35]): 32 µg/mL (≈ 69.1 µM) | MIC (Pseudomonas aeruginosa [36]): 64 µg/mL (≈ 138 µM)

CC1(CN)CN(c2nc3c(cc2F)c(=O)c(C(=O)O)cn3-c2nc(N)c(F)cc2F)C/C1=N\OCc1ccccc1 (centres undefined)
MIC (Pseudomonas aeruginosa [1]): 128 µg/mL (≈ 226 µM) | MIC [2]: 64 µg/mL (≈ 113 µM) | MIC (Enterococcus faecalis [3]): > 128 µg/mL | MIC (Escherichia coli [4]): > 128 µg/mL | MIC [5]: > 128 µg/mL | MIC (Pseudomonas aeruginosa [6]): 128 µg/mL (≈ 226 µM) | MIC (Klebsiella pneumoniae [7]): > 128 µg/mL | MIC (Pseudomonas aeruginosa [8]): 128 µg/mL (≈ 226 µM) | MIC (Escherichia coli [9]): 128 µg/mL (≈ 226 µM) | MIC (Klebsiella pneumoniae [10]): > 128 µg/mL | MIC [11]: > 128 µg/mL | MIC (Klebsiella pneumoniae [12]): > 128 µg/mL | MIC (Pseudomonas aeruginosa [13]): 128 µg/mL (≈ 226 µM) | MIC (Staphylococcus aureus [14]): 8 µg/mL (≈ 14.1 µM) | MIC (Staphylococcus aureus [15]): 0.25 µg/mL (≈ 0.441 µM) | MIC [16]: 15.6 µg/mL (≈ 27.5 µM) | MIC (Staphylococcus aureus [17]): 4 µg/mL (≈ 7.05 µM) | MIC (Klebsiella pneumoniae [18]): > 128 µg/mL | MIC (Enterococcus faecium [19]): > 128 µg/mL | MIC (Pseudomonas aeruginosa [20]): 128 µg/mL (≈ 226 µM) | MIC (Enterococcus faecium [21]): 8 µg/mL (≈ 14.1 µM) | MIC (Escherichia coli [22]): 64 µg/mL (≈ 113 µM) | MIC (Staphylococcus aureus [23]): 64 µg/mL (≈ 113 µM) | MIC (Escherichia coli [24]): 16 µg/mL (≈ 28.2 µM) | MIC (Enterococcus faecalis [25]): > 128 µg/mL | MIC (Klebsiella pneumoniae [26]): > 128 µg/mL | MIC (Streptococcus pneumoniae): 32 µg/mL (≈ 56.4 µM) | MIC (Klebsiella pneumoniae [27]): > 128 µg/mL | MIC (Staphylococcus aureus [28]): 64 µg/mL (≈ 113 µM) | MIC (Klebsiella pneumoniae [29]): > 128 µg/mL | MIC (Enterococcus faecalis [30]): > 128 µg/mL | MIC [31]: > 128 µg/mL | MIC [32]: > 128 µg/mL | MIC (Escherichia coli [33]): > 128 µg/mL | MIC [34]: > 128 µg/mL | MIC (Staphylococcus aureus [35]): 0.25 µg/mL (≈ 0.441 µM) | MIC (Pseudomonas aeruginosa [36]): 128 µg/mL (≈ 226 µM)
